In publication PMC8213057, “Targeting ALK2: An Open Science Approach to Developing Therapeutics for the Treatment of Diffuse Intrinsic Pontine Glioma” (Journal of Medicinal Chemistry, 2020):
Several values for one entry are separate records, joined by “and”; a condition that tells them apart may be missing. Equal entries are not always repeated.

Legend:
CTK/MATK = biological target: T1, CTK/MATK (Homo sapiens, UniProt P42679); conditions: 1 μM; Run 1, Run 2
T1 sequence (P42679 1-507): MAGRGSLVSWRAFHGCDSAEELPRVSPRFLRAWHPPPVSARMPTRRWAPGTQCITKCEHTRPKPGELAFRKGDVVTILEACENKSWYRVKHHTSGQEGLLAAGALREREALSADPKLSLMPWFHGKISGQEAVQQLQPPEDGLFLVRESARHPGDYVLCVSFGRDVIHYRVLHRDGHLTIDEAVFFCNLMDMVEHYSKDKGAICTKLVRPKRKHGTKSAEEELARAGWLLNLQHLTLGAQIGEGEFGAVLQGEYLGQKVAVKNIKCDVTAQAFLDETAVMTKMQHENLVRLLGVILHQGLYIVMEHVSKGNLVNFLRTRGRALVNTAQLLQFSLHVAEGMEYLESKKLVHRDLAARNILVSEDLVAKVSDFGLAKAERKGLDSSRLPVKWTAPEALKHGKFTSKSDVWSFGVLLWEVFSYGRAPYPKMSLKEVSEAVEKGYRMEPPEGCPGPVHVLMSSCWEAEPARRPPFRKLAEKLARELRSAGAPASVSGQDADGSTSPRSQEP

MKK7 = biological target: T2, MKK7 (Homo sapiens, UniProt O14733); conditions: 1 μM; Run 1, Run 2
T2 sequence (O14733 1-419): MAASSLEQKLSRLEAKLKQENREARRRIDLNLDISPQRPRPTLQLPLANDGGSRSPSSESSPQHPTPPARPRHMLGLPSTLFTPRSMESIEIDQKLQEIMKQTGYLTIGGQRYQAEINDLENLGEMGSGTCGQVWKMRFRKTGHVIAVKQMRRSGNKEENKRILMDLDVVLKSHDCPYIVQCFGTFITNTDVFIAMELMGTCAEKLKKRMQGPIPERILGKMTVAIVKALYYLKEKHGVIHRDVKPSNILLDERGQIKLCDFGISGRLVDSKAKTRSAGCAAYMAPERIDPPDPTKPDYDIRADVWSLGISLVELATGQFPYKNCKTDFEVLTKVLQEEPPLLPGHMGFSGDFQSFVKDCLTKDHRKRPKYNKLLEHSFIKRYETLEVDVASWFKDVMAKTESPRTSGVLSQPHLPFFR

CDK5/p35 = CDK5/p35 (Homo sapiens, UniProt Q00535); assay: biochemical; conditions: read-out: % enzyme activity, 1 μM; Run 1, Run 2
Chain of CDK5/p35 (Q00535 whole entry): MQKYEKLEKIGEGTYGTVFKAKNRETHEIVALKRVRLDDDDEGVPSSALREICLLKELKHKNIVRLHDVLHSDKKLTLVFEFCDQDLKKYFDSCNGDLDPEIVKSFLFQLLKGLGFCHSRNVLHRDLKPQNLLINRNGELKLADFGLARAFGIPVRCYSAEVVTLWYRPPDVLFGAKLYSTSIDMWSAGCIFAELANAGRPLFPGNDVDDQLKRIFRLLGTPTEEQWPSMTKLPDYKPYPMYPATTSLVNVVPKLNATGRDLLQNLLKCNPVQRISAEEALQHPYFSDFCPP
Chain of CDK5/p35 (Q15078 whole entry partner): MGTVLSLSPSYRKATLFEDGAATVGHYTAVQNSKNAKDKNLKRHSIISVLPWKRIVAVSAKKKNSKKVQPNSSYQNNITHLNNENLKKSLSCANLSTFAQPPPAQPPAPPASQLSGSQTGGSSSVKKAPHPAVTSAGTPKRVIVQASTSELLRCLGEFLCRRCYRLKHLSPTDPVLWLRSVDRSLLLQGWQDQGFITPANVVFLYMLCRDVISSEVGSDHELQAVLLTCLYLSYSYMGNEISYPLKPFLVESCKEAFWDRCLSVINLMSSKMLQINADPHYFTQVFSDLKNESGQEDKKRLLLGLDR

IR = IR (Homo sapiens, UniProt P06213); conditions: 1 μM; Run 1, Run 2
Chain of IR (P06213 28-1382): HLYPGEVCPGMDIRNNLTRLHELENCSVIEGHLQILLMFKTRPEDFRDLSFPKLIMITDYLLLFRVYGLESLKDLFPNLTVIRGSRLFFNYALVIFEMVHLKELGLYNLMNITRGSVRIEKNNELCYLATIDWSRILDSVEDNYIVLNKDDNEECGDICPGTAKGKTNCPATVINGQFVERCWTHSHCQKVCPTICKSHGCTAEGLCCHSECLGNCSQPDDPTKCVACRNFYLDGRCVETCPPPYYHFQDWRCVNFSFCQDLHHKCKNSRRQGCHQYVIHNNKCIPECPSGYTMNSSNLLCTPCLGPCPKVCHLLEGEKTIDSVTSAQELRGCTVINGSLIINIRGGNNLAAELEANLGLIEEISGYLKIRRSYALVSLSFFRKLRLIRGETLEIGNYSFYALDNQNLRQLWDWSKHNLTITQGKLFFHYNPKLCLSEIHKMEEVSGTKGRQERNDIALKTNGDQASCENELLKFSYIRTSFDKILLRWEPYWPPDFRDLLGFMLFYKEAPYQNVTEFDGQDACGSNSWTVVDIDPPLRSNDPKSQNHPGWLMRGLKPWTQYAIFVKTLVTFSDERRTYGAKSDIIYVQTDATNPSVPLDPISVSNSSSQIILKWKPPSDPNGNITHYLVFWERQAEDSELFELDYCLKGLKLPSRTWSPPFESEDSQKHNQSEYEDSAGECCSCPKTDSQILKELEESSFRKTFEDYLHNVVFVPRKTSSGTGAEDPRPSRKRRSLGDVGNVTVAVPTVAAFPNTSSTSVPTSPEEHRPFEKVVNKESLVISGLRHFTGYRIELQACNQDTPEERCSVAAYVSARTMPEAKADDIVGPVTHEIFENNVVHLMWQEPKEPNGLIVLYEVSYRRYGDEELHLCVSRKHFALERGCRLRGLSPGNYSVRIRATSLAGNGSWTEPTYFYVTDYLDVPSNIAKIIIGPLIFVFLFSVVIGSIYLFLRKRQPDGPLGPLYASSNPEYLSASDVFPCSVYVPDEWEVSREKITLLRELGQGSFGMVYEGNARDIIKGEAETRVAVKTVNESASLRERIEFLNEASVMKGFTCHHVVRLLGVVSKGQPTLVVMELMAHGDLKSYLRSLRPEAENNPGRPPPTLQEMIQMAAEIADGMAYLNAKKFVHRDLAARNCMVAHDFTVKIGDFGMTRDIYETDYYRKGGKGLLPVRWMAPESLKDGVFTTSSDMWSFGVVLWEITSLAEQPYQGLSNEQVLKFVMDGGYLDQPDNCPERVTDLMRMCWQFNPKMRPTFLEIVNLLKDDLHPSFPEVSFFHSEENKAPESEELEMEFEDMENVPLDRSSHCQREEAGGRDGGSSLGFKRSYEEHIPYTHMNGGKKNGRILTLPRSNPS

LCK2/ICK = biological target: T3, LCK2/ICK (Homo sapiens, UniProt Q9UPZ9); assay: biochemical; conditions: read-out: % enzyme activity, 1 μM; Run 1, Run 2
T3 sequence (Q9UPZ9 1-632): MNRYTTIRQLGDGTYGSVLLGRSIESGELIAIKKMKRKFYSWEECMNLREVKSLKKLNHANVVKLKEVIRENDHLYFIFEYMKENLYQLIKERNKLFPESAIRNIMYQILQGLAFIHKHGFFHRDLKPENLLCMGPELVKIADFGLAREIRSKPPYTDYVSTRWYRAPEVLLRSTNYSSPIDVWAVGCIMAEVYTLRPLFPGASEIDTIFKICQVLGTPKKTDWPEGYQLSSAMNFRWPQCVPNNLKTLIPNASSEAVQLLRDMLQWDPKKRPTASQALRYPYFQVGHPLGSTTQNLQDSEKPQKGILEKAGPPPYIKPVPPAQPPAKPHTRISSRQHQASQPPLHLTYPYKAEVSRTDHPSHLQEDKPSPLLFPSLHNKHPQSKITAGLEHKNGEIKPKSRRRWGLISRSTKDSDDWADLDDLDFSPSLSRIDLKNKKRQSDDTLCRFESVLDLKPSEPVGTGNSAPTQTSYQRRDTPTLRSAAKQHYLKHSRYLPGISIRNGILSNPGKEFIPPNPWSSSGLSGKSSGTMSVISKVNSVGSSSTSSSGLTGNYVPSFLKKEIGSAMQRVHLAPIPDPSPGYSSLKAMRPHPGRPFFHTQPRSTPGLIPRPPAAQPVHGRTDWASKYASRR

SGK3/SGKL = biological target: T4, SGK3/SGKL (Homo sapiens, UniProt Q96BR1); assay: biochemical; conditions: read-out: % enzyme activity, 1 μM; Run 1, Run 2
T4 sequence (Q96BR1 1-496): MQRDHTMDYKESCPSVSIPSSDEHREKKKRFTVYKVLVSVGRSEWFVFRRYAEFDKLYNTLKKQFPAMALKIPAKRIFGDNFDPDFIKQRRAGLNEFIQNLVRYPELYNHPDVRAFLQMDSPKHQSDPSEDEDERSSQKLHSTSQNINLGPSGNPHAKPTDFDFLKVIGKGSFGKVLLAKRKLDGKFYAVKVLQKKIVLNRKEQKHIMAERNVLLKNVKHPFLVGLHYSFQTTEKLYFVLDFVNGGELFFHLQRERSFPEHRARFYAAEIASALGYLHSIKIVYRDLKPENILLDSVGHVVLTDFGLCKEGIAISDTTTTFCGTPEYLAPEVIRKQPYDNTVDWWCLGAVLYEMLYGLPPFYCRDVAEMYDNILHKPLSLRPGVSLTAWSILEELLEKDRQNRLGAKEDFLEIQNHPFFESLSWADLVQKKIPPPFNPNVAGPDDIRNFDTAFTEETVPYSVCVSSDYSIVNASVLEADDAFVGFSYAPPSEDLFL

SLK/STK2 = SLK/STK2 (Homo sapiens, UniProt Q9H2G2); assay: biochemical; conditions: read-out: % enzyme activity, 1 μM; Run 1, Run 2
Chain of SLK/STK2 (Q9H2G2 whole entry): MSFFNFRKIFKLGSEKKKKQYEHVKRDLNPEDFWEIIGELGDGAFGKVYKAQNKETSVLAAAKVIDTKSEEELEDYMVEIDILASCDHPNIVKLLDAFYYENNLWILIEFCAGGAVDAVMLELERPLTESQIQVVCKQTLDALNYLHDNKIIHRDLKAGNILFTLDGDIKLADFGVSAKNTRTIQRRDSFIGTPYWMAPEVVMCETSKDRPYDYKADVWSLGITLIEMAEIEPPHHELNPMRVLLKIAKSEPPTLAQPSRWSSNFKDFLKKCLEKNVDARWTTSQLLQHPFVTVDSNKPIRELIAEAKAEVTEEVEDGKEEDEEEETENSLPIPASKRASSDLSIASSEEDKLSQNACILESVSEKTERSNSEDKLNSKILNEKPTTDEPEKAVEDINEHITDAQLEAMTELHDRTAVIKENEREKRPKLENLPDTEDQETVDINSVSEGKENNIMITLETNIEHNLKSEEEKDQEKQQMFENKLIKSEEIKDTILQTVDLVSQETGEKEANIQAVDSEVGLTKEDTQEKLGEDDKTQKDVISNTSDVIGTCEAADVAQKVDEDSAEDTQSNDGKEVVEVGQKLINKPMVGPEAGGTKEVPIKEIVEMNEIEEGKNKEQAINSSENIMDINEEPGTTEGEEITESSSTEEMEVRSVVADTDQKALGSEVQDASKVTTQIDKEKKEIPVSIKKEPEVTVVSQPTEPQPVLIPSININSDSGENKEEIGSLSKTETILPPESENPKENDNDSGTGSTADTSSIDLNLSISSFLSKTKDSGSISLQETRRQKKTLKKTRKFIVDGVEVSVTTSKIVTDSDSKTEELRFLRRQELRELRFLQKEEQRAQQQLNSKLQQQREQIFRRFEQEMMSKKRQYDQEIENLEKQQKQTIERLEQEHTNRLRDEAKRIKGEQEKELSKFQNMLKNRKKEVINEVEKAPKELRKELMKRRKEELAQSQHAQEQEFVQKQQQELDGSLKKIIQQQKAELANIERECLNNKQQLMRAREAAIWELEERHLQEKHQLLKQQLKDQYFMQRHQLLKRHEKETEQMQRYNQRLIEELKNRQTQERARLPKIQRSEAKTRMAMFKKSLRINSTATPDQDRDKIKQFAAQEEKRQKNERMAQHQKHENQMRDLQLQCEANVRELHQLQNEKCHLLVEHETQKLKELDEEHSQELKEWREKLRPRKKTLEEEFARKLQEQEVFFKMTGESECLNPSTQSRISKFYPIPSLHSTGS

Compound	% enzyme activity (CTK/MATK)	% enzyme activity (MKK7)	remaining activity at 1 µM (CDK5/p35)	% enzyme activity (IR)	remaining activity at 1 µM (LCK2/ICK)	remaining activity at 1 µM (SGK3/SGKL)	% enzyme activity at 1 μM (MNK2)	remaining activity at 1 µM (SLK/STK2)
COc1cc(-c2cncc(-c3ccc(N4CCN(C)CC4)cc3)c2C)cc(F)c1C(N)=O [Compound 26a, 2-Fluoro-6-methoxy-4-(4-methyl-5-(4-(4-methylpiperazin-1-yl)phenyl)pyridin-3-yl)benzamide]	94.85%	92.71%	96.2%	100.44%	108%	103%	48.2%	100%
COc1cc(-c2cncc(-c3ccc(N4C[C@@H](C)N(C)[C@@H](C)C4)cc3)c2C)cc(F)c1C(N)=O [Compound 26c, 2-Fluoro-6-methoxy-4-(4-methyl-5-(4-((3R,5S)-3,4,5-trimethylpiperazin-1-yl)phenyl)pyridin-3-yl)benzamide]	98.62%	97.52%	97.6%	97.15%	97.5%	94.8%	70.8% and 68.3%	101%
